According to patent publication US8889704B2 (Array BioPharma Inc., priority 2011, dated 2014):
Counter-ions that a name gives are not always drawn.

Legend:
Type in all cases: biochemical
[1] = molecular target: PIM-1 (Homo sapiens, UniProt P11309); experiment: Enzyme PIM-1 Assay ([33P]ATP incorporation into PIM2tide, filter plate); details: averaged IC50; 35 μM ATP, 7.5 μM PIM2tide, 0.25 nM PIM-1, 60 min at 22° C.
Procedure: (§1) The assay for the determination of PIM-1 activity is based on the incorporation of [^33P]PO4 from [γ-^33P]ATP into PIM2tide substrate and capture of the radiolabeled peptide onto a Whatman P81 (phosphocellulose) filter plate. The amount of radiolabeled product is then measured by liquid scintillation counting. The final buffer conditions were as follows: 20 mM K^+MOPS, pH 7.4, 10 mM MgCl2, 0.005% Tween-20, 1 mM DTT. Assay mixtures contained 35 μM [γ-^33P]ATP (20 μCi/mL), 7.5 μM PIM2tide and 0.25 nM PIM-1 in a total volume of 50 μL. Incubations were carried out for 60 min at 22° C. and quenched with 75 μL of 200 mM H3PO4, filtered through a Whatman P81 plate and washed (1×200 μL and 5×100 μL) with 200 mM H3PO4. Fifty μL of liquid scintillation cocktail were then added per well, and the plate was counted for 30 s/well using a TopCount NXT.
(§2) Compounds were prepared at 50× the final concentration in DMSO by conducting 3-fold serial dilutions from a 500-μM intermediate dilution to give a 10-point dosing curve having a high dose of 10 μM. One-μL aliquots of these were then transferred to the assay mixtures above to give a final concentration of DMSO of 2%. A standard or reference compound was typically included on each assay plate to validate that plate. For each plate, percent of control (POC) values were calculated for each well. IC50 values were estimated from the POC values using a standard 4-parameter logistic model. The IC50 is defined as the concentration of inhibitor at which the POC equals 50 for the fitted curve.

[2] = molecular target: T1, GST-tagged recombinant full-length human Pim-2 (Homo sapiens, UniProt Q9P1W9); experiment: PIM-2 Assay (as Example A); details: averaged IC50; 4 μM ATP, 1.0 μM PIM2tide, 1.5 nM Pim-2
T1 construct: GST-tagged recombinant full-length human Pim-2; GST
Procedure: as §1, §2
Assay was performed as described in Example A, using 4 μM [γ-^33P]ATP (20 μCi/mL), 1.0 μM PIM2tide and 1.5 nM GST-tagged recombinant full-length human Pim-2 in place of PIM-1.

[3] = molecular target: recombinant rat PIM-3 (Rattus norvegicus, UniProt O70444); experiment: PIM-3 Assay (as Example A); details: averaged IC50; 30 μM ATP, 3.75 μM PIM2tide, 0.5 nM PIM-3
Procedure: as §1, §2
Assay was performed as described in Example A, using 30 μM [γ-^33P]ATP (20 μCi/mL), 3.75 μM PIM2tide and 0.5 nM recombinant rat PIM-3 in place of PIM-1.

T1 sequence (Q9P1W9 whole entry): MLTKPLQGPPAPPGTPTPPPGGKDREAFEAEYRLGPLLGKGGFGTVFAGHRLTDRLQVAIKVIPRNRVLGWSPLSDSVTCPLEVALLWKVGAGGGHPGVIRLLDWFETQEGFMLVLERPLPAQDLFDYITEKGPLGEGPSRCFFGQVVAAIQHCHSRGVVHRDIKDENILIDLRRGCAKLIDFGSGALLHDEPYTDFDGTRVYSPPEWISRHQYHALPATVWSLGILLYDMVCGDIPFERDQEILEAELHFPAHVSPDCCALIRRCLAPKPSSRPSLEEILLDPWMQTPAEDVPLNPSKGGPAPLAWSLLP
Sequence of PIM-1 (P11309 whole entry, species assumed): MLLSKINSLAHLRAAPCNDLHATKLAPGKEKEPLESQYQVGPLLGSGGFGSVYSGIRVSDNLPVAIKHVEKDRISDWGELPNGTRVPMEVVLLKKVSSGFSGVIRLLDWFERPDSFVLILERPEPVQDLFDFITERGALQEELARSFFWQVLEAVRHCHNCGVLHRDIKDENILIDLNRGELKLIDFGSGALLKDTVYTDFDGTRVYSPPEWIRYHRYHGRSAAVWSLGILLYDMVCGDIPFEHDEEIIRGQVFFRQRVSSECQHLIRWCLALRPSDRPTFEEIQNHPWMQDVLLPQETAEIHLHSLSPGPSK

| SMILES | IC50 [1] [nM] | IC50 [2] [nM] | IC50 [3] [nM] |
| --- | --- | --- | --- |
| COc1cc2nc(-c3nnc4ccc([C@H](N5CC[C@H](N)C5)C(F)(F)F)cn34)ccc2cc1F [Example 136, (S)-1-((S)-2,2,2-trifluoro-1-(3-(6-fluoro-7-methoxyquinolin-2-yl)-[1,2,4]triazolo[4,3-a]pyridin-6-yl)ethyl)pyrrolidin-3-amine hydrochloride] | 0.87 | 96 | 5 |
| NC[C@H]1CCN(C(c2ccc3nnc(-c4ccc5cccc(OCC6CC6)c5n4)n3c2)C(F)(F)F)C1 (stereo partly drawn) [Example 21, ((3R)-1-(1-(3-(8-(cyclopropylmethoxy)quinolin-2-yl)-[1,2,4]triazolo[4,3-a]pyridin-6-yl)-2,2,2-trifluoroethyl)pyrrolidin-3-yl)methanamine dihydrochloride] | 1.14 | 427 | 46 |
| CN[C@H]1CCN([C@H](c2ccc3nnc(-c4ccc5ccc(C(=O)NC(C)C)cc5n4)n3c2)C(F)(F)F)C1 [Example 57, N-isopropyl-2-(6-((R)-2,2,2-trifluoro-1-((S)-3-(methylamino)pyrrolidin-1-yl)ethyl)-[1,2,4]triazolo[4,3-a]pyridin-3-yl)quinoline-7-carboxamide] | 0.45 | > 100 | 0.9 |
| CCOc1cc2nc(-c3nnc4ccc([C@@H](N5CC[C@H](CN)C5)C(F)(F)F)cn34)ccc2cc1F [Example 280, ((R)-1-((R)-1-(3-(7-ethoxy-6-fluoroquinolin-2-yl)-[1,2,4]triazolo[4,3-a]pyridin-6-yl)-2,2,2-trifluoroethyl)pyrrolidin-3-yl)methanamine hydrochloride] | 0.62 | 418 | 2.5 |
| CC1(O)CCN([C@H](c2ccc3nnc(-c4ccc5cccc(C(C)(C)C)c5n4)n3c2)C(F)(F)F)C1 (single isomer, unassigned; diastereomer 2) [Example 196, hydrochloride] | 42.3 | > 1000 | > 100 |
| COc1cccc2ccc(-c3nnc4ccc(C(N5C[C@H](O)[C@@H](O)C5)C(F)(F)F)cn34)nc12 (stereo partly drawn) [Example 19, (3S,4S)-1-(2,2,2-trifluoro-1-(3-(8-methoxyquinolin-2-yl)-[1,2,4]triazolo[4,3-a]pyridin-6-yl)ethyl)pyrrolidine-3,4-diol] | 2.38 | > 1000 | 25 |
| Fc1ccc2ccc(-c3nnc4ccc([C@@H](N5C[C@@H]6C[C@H]5CN6)C(F)(F)F)cn34)nc2c1 [Example 63, 2-(6-((R)-1-((1S,4S)-2,5-diazabicyclo[2.2.1]heptan-2-yl)-2,2,2-trifluoroethyl)-[1,2,4]triazolo[4,3-a]pyridin-3-yl)-7-fluoro quinoline dihydrochloride] | 11.7 | > 100 | 25 |
| COCCOc1ccc2ccc(-c3nnc4ccc([C@H](N5CC[C@](C)(N)C5)C(F)(F)F)cn34)nc2c1 [Example 260, (S)-3-methyl-1-((S)-2,2,2-trifluoro-1-(3-(7-(2-methoxyethoxy)quinolin-2-yl)-[1,2,4]triazolo[4,3-a]pyridin-6-yl)ethyl)pyrrolidin-3-amine dihydrochloride] | 0.39 | 95 | 0.5 |

Continued by falling IC50 [1], values first:

| IC50 [1] [nM] | IC50 [2] [nM] | IC50 [3] [nM] | SMILES |
| --- | --- | --- | --- |
| 0.38 | 434 | 1.9 | N#CCOc1cccc2ccc(-c3nnc4ccc([C@@H](N5CC[C@H](N)C5)C(F)(F)F)cn34)nc12 [Example 270, 2-(2-(6-((R)-1-((S)-3-aminopyrrolidin-1-yl)-2,2,2-trifluoroethyl)-[1,2,4]triazolo[4,3-a]pyridin-3-yl)quinolin-8-yloxy)acetonitrile formate] |
| 0.33 | 748 | 1.39 | CO[C@H](C)COc1ccc2cc(F)c(-c3nnc4ccc([C@@H](N5CC[C@H](N)C5)C(F)(F)F)cn34)nc2c1 [Example 328, (S)-1-((R)-2,2,2-trifluoro-1-(3-(3-fluoro-7-((R)-2-methoxypropoxy)quinolin-2-yl)-[1,2,4]triazolo[4,3-a]pyridin-6-yl)ethyl)pyrrolidin-3-amine] |
| 0.29 | > 100 | 0.5 | Cn1cc(-c2ccc3ccc(-c4nnc5ccc([C@@H](N6CC[C@H](N)C6)C(F)(F)F)cn45)nc3c2F)cn1 [Example 171, (S)-1-((R)-2,2,2-trifluoro-1-(3-(8-fluoro-7-(1-methyl-1H-pyrazol-4-yl)quinolin-2-yl)-[1,2,4]triazolo[4,3-a]pyridin-6-yl)ethyl)pyrrolidin-3-amine tri-hydrochloride] |
| 0.25 | 131 | 2.6 | N[C@H]1CCN(C(c2ccc3nnc(-c4ccc5cccc(OCC6CC6)c5n4)n3c2)C(F)(F)F)C1 (stereo partly drawn) [Example 5, (3S)-1-(1-(3-(8-(cyclopropylmethoxy)quinolin-2-yl)-[1,2,4]triazolo[4,3-a]pyridin-6-yl)-2,2,2-trifluoroethyl)pyrrolidin-3-amine dihydrochloride] |
| 0.24 | 124 | 0.5 | CC(C)(O)COc1cccc2ccc(-c3nnc4ccc([C@@H](N5CC[C@@](C)(N)C5)C(F)(F)F)cn34)nc12 [Example 272, 1-(2-(6-((R)-1-((R)-3-amino-3-methylpyrrolidin-1-yl)-2,2,2-trifluoroethyl)-[1,2,4]triazolo[4,3-a]pyridin-3-yl)quinolin-8-yloxy)-2-methylpropan-2-ol dihydrochloride] |
| 0.22 | 69 | 0.3 | CC(C)(O)COc1cc2nc(-c3nnc4ccc([C@@H](N5CC[C@H](N)C5)C(F)(F)F)cn34)ccc2cc1F [Example 302, 1-(2-(6-((R)-1-((S)-3-aminopyrrolidin-1-yl)-2,2,2-trifluoroethyl)-[1,2,4]triazolo[4,3-a]pyridin-3-yl)-6-fluoroquinolin-7-yloxy)-2-methylpropan-2-ol dihydrochloride] |
| 0.21 | > 100 | 0.7 | COc1ccc2ccc(-c3nnc4ccc([C@@H](N5CC[C@H](N)C5)C(F)(F)F)cn34)nc2c1C [Example 124, (S)-1-((R)-2,2,2-trifluoro-1-(3-(7-methoxy-8-methylquinolin-2-yl)-[1,2,4]triazolo[4,3-a]pyridin-6-yl)ethyl)pyrrolidin-3-amine hydrochloride] |
| 0.18 | 32 | 2 | CN[C@H]1CCN([C@H](c2ccc3nnc(-c4ccc5cccc(OC(C)C)c5n4)n3c2)C(F)(F)F)C1 [Example 36, (S)—N-methyl-1-((R)-2,2,2-trifluoro-1-(3-(8-isopropoxyquinolin-2-yl)-[1,2,4]triazolo[4,3-a]pyridin-6-yl)ethyl)pyrrolidin-3-amine dihydrochloride] |
| 0.17 | > 100 | 12 | CC(C)(C)c1cccc2ccc(-c3nnc4ccc([C@H](N5CC[C@@H](O)C5)C(F)(F)F)cn34)nc12 [Example 104] |
| 0.08 | 18 | 1 | N[C@H]1CCN([C@H](c2ccc3nnc(-c4ccc5cccc(C6CC6)c5n4)n3c2)C(F)(F)F)C1 [Example 39, (S)-1-((R)-1-(3-(8-cyclopropylquinolin-2-yl)-[1,2,4]triazolo[4,3-a]pyridin-6-yl)-2,2,2-trifluoroethyl)pyrrolidin-3-amine dihydrochloride] |
